Source: ChEMBL document CHEMBL5055626 (J Med Chem, 2021)
Activity calls are given as the source filed them. The calls are words filed in the database; no cut-off is given here. Where a SMILES comes first, the peptide text is derived from it. Bridges are numbered along the chain shown (N, C = ends). [ ]: non-standard residue; d: D form. sY = N[C@@H](Cc1ccc(OS(=O)(=O)O)cc1)C(=O)O

How the values were obtained:
[1] = biological target: Neuronal acetylcholine receptor; alpha3/beta2 (Rattus norvegicus, UniProt P04757+P12390); test: Antagonist activity at rat alpha3beta2 nAChR expressed in xenopus oocytes assessed as inhibition of Ach- induced response at -70 mV holding potential preincubated for 5 mins followed by Ach stimulation by voltage-clamp based electrophysiological method; type: cell-based, Oocyte
Sequence of Neuronal acetylcholine receptor; alpha3/beta2 (P04757 whole entry): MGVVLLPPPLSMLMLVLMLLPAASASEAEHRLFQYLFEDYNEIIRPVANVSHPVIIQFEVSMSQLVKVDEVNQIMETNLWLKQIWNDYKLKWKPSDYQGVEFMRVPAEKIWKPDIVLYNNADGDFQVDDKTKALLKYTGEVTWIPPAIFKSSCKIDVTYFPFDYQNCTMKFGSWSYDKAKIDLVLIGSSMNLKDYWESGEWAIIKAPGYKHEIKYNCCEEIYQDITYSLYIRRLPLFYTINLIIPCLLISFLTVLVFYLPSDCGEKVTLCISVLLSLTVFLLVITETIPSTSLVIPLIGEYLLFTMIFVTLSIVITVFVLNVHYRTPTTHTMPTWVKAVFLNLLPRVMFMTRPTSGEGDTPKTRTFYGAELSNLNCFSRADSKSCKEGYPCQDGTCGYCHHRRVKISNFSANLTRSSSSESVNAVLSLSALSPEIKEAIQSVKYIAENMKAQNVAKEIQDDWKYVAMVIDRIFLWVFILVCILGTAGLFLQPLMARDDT
Sequence of Neuronal acetylcholine receptor; alpha3/beta2 (P12390 whole entry): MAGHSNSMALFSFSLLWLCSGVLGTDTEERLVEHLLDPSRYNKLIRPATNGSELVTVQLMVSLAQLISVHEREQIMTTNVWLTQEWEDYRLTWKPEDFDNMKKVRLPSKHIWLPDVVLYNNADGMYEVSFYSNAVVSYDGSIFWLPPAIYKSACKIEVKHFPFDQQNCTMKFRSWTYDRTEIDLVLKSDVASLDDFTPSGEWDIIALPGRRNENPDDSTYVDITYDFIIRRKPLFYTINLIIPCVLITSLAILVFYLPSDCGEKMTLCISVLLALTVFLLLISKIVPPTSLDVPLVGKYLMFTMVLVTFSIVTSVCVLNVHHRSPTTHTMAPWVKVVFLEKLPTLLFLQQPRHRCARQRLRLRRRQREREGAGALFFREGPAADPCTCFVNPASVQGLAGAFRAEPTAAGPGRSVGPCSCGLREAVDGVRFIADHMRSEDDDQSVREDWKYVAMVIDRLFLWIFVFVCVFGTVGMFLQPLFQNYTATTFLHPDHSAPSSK

[2] = biological target: Neuronal acetylcholine receptor subunit alpha-7 (Rattus norvegicus, UniProt Q05941); test: Antagonist activity at rat alpha7 nAChR expressed in xenopus oocytes assessed as inhibition of Ach- induced response at -70 mV holding potential preincubated for 5 mins followed by Ach stimulation by voltage-clamp based electrophysiological method; type: cell-based, Oocyte
Sequence of Neuronal acetylcholine receptor subunit alpha-7 (Rattus norvegicus, UniProt Q05941) (Q05941 whole entry): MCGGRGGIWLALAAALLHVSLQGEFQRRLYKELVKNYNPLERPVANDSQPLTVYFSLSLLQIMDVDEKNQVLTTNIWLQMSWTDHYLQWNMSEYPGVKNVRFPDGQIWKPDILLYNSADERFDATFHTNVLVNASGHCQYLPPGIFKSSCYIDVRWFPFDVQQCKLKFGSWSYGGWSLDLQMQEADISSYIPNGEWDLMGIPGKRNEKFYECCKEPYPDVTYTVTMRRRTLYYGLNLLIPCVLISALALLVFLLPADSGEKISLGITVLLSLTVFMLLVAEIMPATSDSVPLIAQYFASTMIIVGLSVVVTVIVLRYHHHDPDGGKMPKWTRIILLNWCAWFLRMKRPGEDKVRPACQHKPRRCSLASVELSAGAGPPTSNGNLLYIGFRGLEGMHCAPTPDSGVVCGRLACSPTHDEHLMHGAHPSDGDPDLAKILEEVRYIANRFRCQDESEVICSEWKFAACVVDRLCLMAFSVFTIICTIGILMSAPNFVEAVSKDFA

[3] = Antagonist activity at rat nAChR alpha7 Q141H mutant expressed in xenopus oocytes assessed as inhibition of Ach- induced response at -70 mV holding potential preincubated for 5 mins followed by Ach stimulation by voltage-clamp based electrophysiological method; type: cell-based; conditions: Oocyte
[4] = Antagonist activity at rat nAChR alpha7 N184S mutant expressed in xenopus oocytes assessed as inhibition of Ach- induced response at -70 mV holding potential preincubated for 5 mins followed by Ach stimulation by voltage-clamp based electrophysiological method; type: cell-based; conditions: Oocyte
[5] = Antagonist activity at rat nAChR alpha7 K186R mutant expressed in xenopus oocytes assessed as inhibition of Ach- induced response at -70 mV holding potential preincubated for 5 mins followed by Ach stimulation by voltage-clamp based electrophysiological method; type: cell-based; conditions: Oocyte
[6] = biological target: Neuronal acetylcholine receptor subunit alpha-7 (Homo sapiens, UniProt P36544); type: cell-based, Oocyte
Sequence of Neuronal acetylcholine receptor subunit alpha-7 (Homo sapiens, UniProt P36544) (P36544 whole entry): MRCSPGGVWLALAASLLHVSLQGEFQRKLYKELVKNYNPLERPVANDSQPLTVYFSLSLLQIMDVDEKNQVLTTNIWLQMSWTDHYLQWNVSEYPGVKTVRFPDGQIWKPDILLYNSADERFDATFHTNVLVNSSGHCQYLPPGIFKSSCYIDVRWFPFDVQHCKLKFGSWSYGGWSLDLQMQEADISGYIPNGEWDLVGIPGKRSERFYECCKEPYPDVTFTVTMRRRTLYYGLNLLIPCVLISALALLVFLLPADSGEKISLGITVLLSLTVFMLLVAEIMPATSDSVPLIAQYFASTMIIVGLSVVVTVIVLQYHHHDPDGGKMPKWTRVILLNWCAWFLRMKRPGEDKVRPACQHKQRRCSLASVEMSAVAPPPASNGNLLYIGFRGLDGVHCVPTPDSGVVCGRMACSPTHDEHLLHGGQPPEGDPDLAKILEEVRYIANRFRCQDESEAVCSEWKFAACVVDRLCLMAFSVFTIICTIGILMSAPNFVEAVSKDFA

[7] = Antagonist activity at human nAChR alpha7 S184N mutant expressed in xenopus oocytes assessed as inhibition of Ach- induced response at -70 mV holding potential preincubated for 5 mins followed by Ach stimulation by voltage-clamp based electrophysiological method; type: cell-based; conditions: Oocyte
[8] = Antagonist activity at human nAChR alpha7 R186K mutant expressed in xenopus oocytes assessed as inhibition of Ach- induced response at -70 mV holding potential preincubated for 5 mins followed by Ach stimulation by voltage-clamp based electrophysiological method; type: cell-based; conditions: Oocyte
[9] = Antagonist activity at human nAChR alpha7 S184N/R186K double mutant expressed in xenopus oocytes assessed as inhibition of Ach- induced response at -70 mV holding potential preincubated for 5 mins followed by Ach stimulation by voltage-clamp based electrophysiological method; type: cell-based; conditions: Oocyte
[10] = biological target: Nicotinic acetylcholine receptor alpha6/alpha3/beta4 (Homo sapiens, UniProt P30926+P32297+Q15825); test: Antagonist activity at rat alpha6/alpha3beta4 nAChR expressed in xenopus oocytes assessed as inhibition of Ach- induced response at -70 mV holding potential preincubated for 5 mins followed by Ach stimulation by voltage-clamp based electrophysiological method; type: cell-based, Oocyte
[11] = Antagonist activity at rat alpha6/ alpha3beta2beta3 nAChR expressed in xenopus oocytes assessed as inhibition of Ach- induced response at -70 mV holding potential preincubated for 5 mins followed by Ach stimulation by voltage-clamp based electrophysiological method; type: cell-based; conditions: Oocyte
[12] = biological target: Neuronal acetylcholine receptor; alpha2/beta2 (Rattus norvegicus, UniProt P12389+P12390); test: Antagonist activity at rat alpha2beta2 nAChR expressed in xenopus oocytes assessed as inhibition of Ach- induced response at -70 mV holding potential preincubated for 5 mins followed by Ach stimulation by voltage-clamp based electrophysiological method; type: cell-based, Oocyte
Sequence of Neuronal acetylcholine receptor; alpha2/beta2 (P12389 whole entry): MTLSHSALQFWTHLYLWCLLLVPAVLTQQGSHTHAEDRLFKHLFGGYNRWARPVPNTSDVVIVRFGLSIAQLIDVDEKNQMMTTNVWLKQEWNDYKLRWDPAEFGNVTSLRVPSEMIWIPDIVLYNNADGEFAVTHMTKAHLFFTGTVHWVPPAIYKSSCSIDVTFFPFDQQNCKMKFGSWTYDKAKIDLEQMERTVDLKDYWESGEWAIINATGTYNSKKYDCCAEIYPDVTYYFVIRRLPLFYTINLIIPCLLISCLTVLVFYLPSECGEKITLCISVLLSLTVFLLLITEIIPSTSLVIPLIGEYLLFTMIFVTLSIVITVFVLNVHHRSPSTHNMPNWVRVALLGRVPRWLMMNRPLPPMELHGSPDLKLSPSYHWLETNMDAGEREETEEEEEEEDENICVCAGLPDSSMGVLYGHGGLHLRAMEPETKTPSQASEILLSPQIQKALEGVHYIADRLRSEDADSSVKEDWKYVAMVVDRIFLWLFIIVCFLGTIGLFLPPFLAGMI
Sequence of Neuronal acetylcholine receptor; alpha2/beta2 (P12390 whole entry): as the sequence (P12390 whole entry) above

[13] = biological target: Neuronal acetylcholine receptor; alpha2/beta4 (Rattus norvegicus, UniProt P12389+P12392); test: Antagonist activity at rat alpha2beta4 nAChR expressed in xenopus oocytes assessed as inhibition of Ach- induced response at -70 mV holding potential preincubated for 5 mins followed by Ach stimulation by voltage-clamp based electrophysiological method; type: cell-based, Oocyte
Sequence of Neuronal acetylcholine receptor; alpha2/beta4 (P12389 whole entry): as the sequence (P12389 whole entry) above
Sequence of Neuronal acetylcholine receptor; alpha2/beta4 (P12392 whole entry): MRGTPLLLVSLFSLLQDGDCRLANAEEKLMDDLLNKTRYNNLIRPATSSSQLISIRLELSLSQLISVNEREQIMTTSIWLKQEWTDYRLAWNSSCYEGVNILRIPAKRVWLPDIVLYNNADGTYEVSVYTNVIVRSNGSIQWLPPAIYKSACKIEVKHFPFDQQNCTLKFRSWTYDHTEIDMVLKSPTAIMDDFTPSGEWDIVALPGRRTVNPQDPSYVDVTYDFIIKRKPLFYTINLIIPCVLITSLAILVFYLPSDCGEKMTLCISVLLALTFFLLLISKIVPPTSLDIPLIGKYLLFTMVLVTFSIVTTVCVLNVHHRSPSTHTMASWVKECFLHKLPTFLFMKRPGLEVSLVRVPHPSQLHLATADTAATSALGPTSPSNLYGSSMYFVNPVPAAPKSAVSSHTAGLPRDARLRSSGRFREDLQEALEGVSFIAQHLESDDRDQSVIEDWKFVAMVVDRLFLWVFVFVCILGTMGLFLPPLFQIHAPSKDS

[14] = biological target: Neuronal acetylcholine receptor; alpha3/beta4 (Rattus norvegicus, UniProt P04757+P12392); test: Antagonist activity at rat alpha3beta4 nAChR expressed in xenopus oocytes assessed as inhibition of Ach- induced response at -70 mV holding potential preincubated for 5 mins followed by Ach stimulation by voltage-clamp based electrophysiological method; type: cell-based, Oocyte
[15] = biological target: Neuronal acetylcholine receptor; alpha4/beta2 (Rattus norvegicus, UniProt P09483+P12390); test: Antagonist activity at rat alpha4beta2 nAChR expressed in xenopus oocytes assessed as inhibition of Ach- induced response at -70 mV holding potential preincubated for 5 mins followed by Ach stimulation by voltage-clamp based electrophysiological method; type: cell-based, Oocyte
[16] = biological target: Neuronal acetylcholine receptor; alpha4/beta4 (Rattus norvegicus, UniProt P09483+P12392); test: Antagonist activity at rat alpha4beta4 nAChR expressed in xenopus oocytes assessed as inhibition of Ach- induced response at -70 mV holding potential preincubated for 5 mins followed by Ach stimulation by voltage-clamp based electrophysiological method; type: cell-based, Oocyte
[17] = biological target: Nicotinic acetylcholine receptor alpha9/alpha10 (Rattus norvegicus, UniProt P43144+Q9JLB5); test: Antagonist activity at rat alpha9alpha10 nAChR expressed in xenopus oocytes assessed as inhibition of Ach- induced response at -70 mV holding potential preincubated for 5 mins followed by Ach stimulation by voltage-clamp based electrophysiological method; type: cell-based, Oocyte
Sequence of Nicotinic acetylcholine receptor alpha9/alpha10 (P43144 whole entry): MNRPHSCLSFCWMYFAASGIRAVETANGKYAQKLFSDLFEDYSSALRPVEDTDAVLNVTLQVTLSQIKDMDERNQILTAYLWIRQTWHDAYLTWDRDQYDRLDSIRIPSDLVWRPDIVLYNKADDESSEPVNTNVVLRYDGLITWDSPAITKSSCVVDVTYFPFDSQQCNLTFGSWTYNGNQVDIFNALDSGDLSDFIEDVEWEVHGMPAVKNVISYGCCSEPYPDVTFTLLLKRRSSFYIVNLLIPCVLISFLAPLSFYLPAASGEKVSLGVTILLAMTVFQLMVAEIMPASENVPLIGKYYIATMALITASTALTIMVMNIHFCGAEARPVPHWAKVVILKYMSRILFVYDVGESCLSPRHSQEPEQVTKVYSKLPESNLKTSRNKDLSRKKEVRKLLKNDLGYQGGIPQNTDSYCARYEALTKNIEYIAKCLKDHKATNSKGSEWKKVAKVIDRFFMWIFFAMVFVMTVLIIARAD
Sequence of Nicotinic acetylcholine receptor alpha9/alpha10 (Q9JLB5 whole entry): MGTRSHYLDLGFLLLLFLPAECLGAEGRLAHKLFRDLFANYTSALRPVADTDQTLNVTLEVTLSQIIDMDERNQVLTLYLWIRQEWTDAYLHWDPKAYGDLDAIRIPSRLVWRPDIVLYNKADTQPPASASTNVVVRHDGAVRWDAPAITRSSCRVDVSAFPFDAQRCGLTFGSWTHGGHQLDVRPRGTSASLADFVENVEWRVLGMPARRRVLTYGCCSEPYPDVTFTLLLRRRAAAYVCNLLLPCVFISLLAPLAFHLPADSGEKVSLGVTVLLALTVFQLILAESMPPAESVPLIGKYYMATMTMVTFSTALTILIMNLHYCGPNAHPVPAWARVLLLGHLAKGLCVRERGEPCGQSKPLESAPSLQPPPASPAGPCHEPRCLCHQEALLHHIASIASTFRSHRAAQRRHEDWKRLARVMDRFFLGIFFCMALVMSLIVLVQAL

[18] = biological target: Nicotinic acetylcholine receptor alpha9/alpha10 (Rattus norvegicus) (UniProt P43144+Q9JLB5); test: Antagonist activity at rat alpha9alpha10 nAChR expressed in xenopus oocytes assessed as inhibition of Ach- induced response at 10 uM at -70 mV holding potential preincubated for 5 mins followed by Ach stimulation by voltage-clamp based electrophysiological method; type: cell-based; conditions: Oocyte
[19] = biological target: Neuronal acetylcholine receptor; alpha2/beta2 (Rattus norvegicus) (UniProt P12389+P12390); test: Antagonist activity at rat alpha2beta2 nAChR expressed in xenopus oocytes assessed as inhibition of Ach- induced response at 10 uM at -70 mV holding potential preincubated for 5 mins followed by Ach stimulation by voltage-clamp based electrophysiological method; type: cell-based; conditions: Oocyte
[20] = biological target: Neuronal acetylcholine receptor; alpha2/beta4 (Rattus norvegicus) (UniProt P12389+P12392); test: Antagonist activity at rat alpha2beta4 nAChR expressed in xenopus oocytes assessed as inhibition of Ach- induced response at 10 uM at -70 mV holding potential preincubated for 5 mins followed by Ach stimulation by voltage-clamp based electrophysiological method; type: cell-based; conditions: Oocyte
[21] = biological target: Neuronal acetylcholine receptor; alpha3/beta4 (Rattus norvegicus) (UniProt P04757+P12392); test: Antagonist activity at rat alpha3beta4 nAChR expressed in xenopus oocytes assessed as inhibition of Ach- induced response at 10 uM at -70 mV holding potential preincubated for 5 mins followed by Ach stimulation by voltage-clamp based electrophysiological method; type: cell-based; conditions: Oocyte
[22] = biological target: Neuronal acetylcholine receptor; alpha4/beta2 (Rattus norvegicus) (UniProt P09483+P12390); test: Antagonist activity at rat alpha4beta2 nAChR expressed in xenopus oocytes assessed as inhibition of Ach- induced response at 10 uM at -70 mV holding potential preincubated for 5 mins followed by Ach stimulation by voltage-clamp based electrophysiological method; type: cell-based; conditions: Oocyte
[23] = biological target: Neuronal acetylcholine receptor; alpha4/beta4 (Rattus norvegicus) (UniProt P09483+P12392); test: Antagonist activity at rat alpha4beta4 nAChR expressed in xenopus oocytes assessed as inhibition of Ach- induced response at 10 uM at -70 mV holding potential preincubated for 5 mins followed by Ach stimulation by voltage-clamp based electrophysiological method; type: cell-based; conditions: Oocyte

Compound: CC[C@H](C)[C@H](N)C(=O)N[C@@H](CCCNC(=N)N)C(=O)N[C@@H](CC(=O)O)C(=O)N[C@@H](CCC(=O)O)C(=O)N[C@H]1CSSC[C@H]2NC(=O)[C@H](C)NC(=O)[C@@H]3CCCN3C(=O)[C@H](CC(N)=O)NC(=O)[C@H](CO)NC(=O)[C@H](CSSC[C@@H](C(=O)N[C@@H](CCCNC(=N)N)C(=O)N[C@@H](CCCNC(=N)N)C(=O)N[C@@H](CCCNC(=N)N)C(=O)O)NC(=O)[C@H](C(C)C)NC(=O)[C@H](Cc3cnc[nH]3)NC(=O)[C@@H]3CCCN3C(=O)[C@H](CC(N)=O)NC(=O)[C@H](CC(N)=O)NC(=O)[C@H](C(C)C)NC(=O)[C@H](CCCNC(=N)N)NC2=O)NC1=O
- IC50 [1]: 0.018 µM

Compound: C[C@@H]1NC(=O)[C@H](C)NC(=O)[C@@H]2CSSC[C@H](NC(=O)CNC(=O)CN)C(=O)N[C@@H](CSSC[C@@H](C(N)=O)NC(=O)[C@H](Cc3ccc(OS(=O)(=O)O)cc3)NC(=O)[C@H](CC(=O)O)NC(=O)[C@H](CCC(N)=O)NC(=O)[C@H](CC(N)=O)NC(=O)[C@H](CC(N)=O)NC1=O)C(=O)N[C@@H](CO)C(=O)N[C@@H](Cc1cnc[nH]1)C(=O)N1CCC[C@H]1C(=O)N[C@@H](C)C(=O)N2
- IC50 [1]: 0.00028 µM

Compound: CC[C@H](C)[C@@H]1NC(=O)[C@H](Cc2cnc[nH]2)NC(=O)[C@@H]2CCCN2C(=O)[C@H](CC(N)=O)NC(=O)[C@H](CC(N)=O)NC(=O)[C@H](C(C)C)NC(=O)[C@H](CC(N)=O)NC(=O)[C@@H]2CSSC[C@H](NC(=O)CN)C(=O)N[C@@H](CSSC[C@@H](C(=O)O)NC1=O)C(=O)N[C@@H](CO)C(=O)N[C@@H](CC(=O)O)C(=O)N1CCC[C@H]1C(=O)N[C@@H](C)C(=O)N2 (H-GCCSDPACNVNNPHIC-OH; disulfide 2-8, 3-16)
- IC50 [2]: 0.1 µM
- IC50 [3]: 0.12 µM
- IC50 [4]: 0.13 µM
- IC50 [5]: 7.48 µM
- IC50 [6]: 13.7 µM
- IC50 [7]: 7.14 µM
- IC50 [8]: 0.2 µM
- IC50 [9]: 0.099 µM

Compound: CC(C)C[C@@H]1NC(=O)[C@H](CC(=O)O)NC(=O)[C@@H]2CCCN2C(=O)[C@H](Cc2cnc[nH]2)NC(=O)[C@H](C)NC(=O)[C@H](CC(N)=O)NC(=O)[C@H](CCCNC(=N)N)NC(=O)[C@@H]2CSSC[C@H](NC(=O)CN)C(=O)N[C@@H](CSSC[C@@H](C(=O)O)NC1=O)C(=O)N[C@@H](CO)C(=O)N[C@@H](CC(=O)O)C(=O)N1CCC[C@H]1C(=O)N1CCC[C@H]1C(=O)N2 (H-GCCSDPPCRNAHPDLC-OH; disulfide 2-8, 3-16)
- IC50 [2]: 0.2 µM
- IC50 [3]: 0.28 µM
- IC50 [4]: 3.29 µM
- IC50 [5]: > 10 µM
- IC50 [6]: > 10 µM
- IC50 [7]: > 10 µM
- IC50 [8]: 1.58 µM
- IC50 [9]: 0.28 µM

Compound: CSCC[C@@H]1NC(=O)[C@H](CC(N)=O)NC(=O)[C@@H]2CSSC[C@H](NC(=O)CN)C(=O)N[C@@H](CSSC[C@@H](C(=O)O)NC(=O)[C@H](Cc3ccc(OS(=O)(=O)O)cc3)NC(=O)[C@H](CC(=O)O)NC(=O)[C@@H]3CCCN3C(=O)[C@H](CC(N)=O)NC(=O)[C@H](CC(N)=O)NC1=O)C(=O)N[C@@H](CO)C(=O)N[C@@H](CC(=O)O)C(=O)N1CCC[C@H]1C(=O)N[C@@H](CCCNC(=N)N)C(=O)N2 (H-GCCSDPRCNMNNPD[sY]C-OH; disulfide 2-8, 3-16)
- IC50 [2]: 0.03 µM

Compound: C[C@@H]1NC(=O)[C@@H]2CSSC[C@H](NC(=O)CN)C(=O)N[C@@H](CSSC[C@@H](C(=O)N[C@@H](CCCNC(=N)N)C(=O)O)NC(=O)[C@H](Cc3cnc[nH]3)NC(=O)[C@H](CCC(=O)O)NC(=O)[C@H](Cc3cnc[nH]3)NC1=O)C(=O)N[C@@H](CO)C(=O)N[C@@H](CC(N)=O)C(=O)N1CCC[C@H]1C(=O)N1CCC[C@H]1C(=O)N2 (H-GCCSNPPCAHEHCR-OH; disulfide 2-8, 3-13)
- IC50 [2]: 1.1 µM
- IC50 [10]: > 10 µM
- IC50 [1]: > 10 µM
- IC50 [11]: 0.63 µM
- IC50 [12]: > 10 µM
- IC50 [13]: > 10 µM
- IC50 [14]: > 10 µM
- IC50 [15]: > 10 µM
- IC50 [16]: > 10 µM
- IC50 [17]: > 10 µM
- inhibition [18]: inactive
- inhibition [19]: inactive
- inhibition [20]: inactive
- inhibition [21]: inactive
- inhibition [22]: inactive
- inhibition [23]: inactive

Compound: C[C@@H]1NC(=O)[C@@H]2CSSC[C@H](NC(=O)[C@@H](N)CCC(N)=O)C(=O)N[C@@H](CSSC[C@@H](C(N)=O)NC(=O)[C@H](Cc3cnc[nH]3)NC(=O)[C@H](CCC(=O)O)NC(=O)[C@H](Cc3cnc[nH]3)NC1=O)C(=O)N[C@@H](CO)C(=O)N[C@@H](CC(N)=O)C(=O)N1CCC[C@H]1C(=O)N1CCC[C@H]1C(=O)N2 (H-QCCSNPPCAHEHC-NH2; disulfide 2-8, 3-13)
- IC50 [2]: 0.47 µM
- IC50 [10]: > 10 µM
- IC50 [1]: 1.56 µM
- IC50 [11]: 0.55 µM
- IC50 [12]: > 10 µM
- IC50 [13]: > 10 µM
- IC50 [14]: > 10 µM
- IC50 [15]: > 10 µM
- IC50 [16]: > 10 µM
- IC50 [17]: > 10 µM
- inhibition [18]: inactive
- inhibition [19]: inactive
- inhibition [20]: inactive
- inhibition [21]: inactive
- inhibition [22]: inactive
- inhibition [23]: inactive
